# pEC50: −log10 of the molar value. Where two headings read alike, the source gives them in different places.
# What was measured:
# [1] = target: T1, PRMT5-MEP50 enzyme complex (Homo sapiens, UniProt O14744); assay: PRMT5-MEP50 Enzyme Methylation Assay (Version A); type: biochemical
# T1 construct: Full-length (FL)-PRMT5-MEP50 enzyme complex (recombinant proteins from baculovirus-transfected Sf21 cells: FL-PRMT5; MW=73837 kDa and FL-MEP50; MW=38614); made in house; host or cells: baculovirus-transfected Sf21 cells
# Experimental: PRMT5-MEP50 Enzyme Methylation Assay (Version A)
# PRMT5-MEP50 biochemical assay is a direct measurement of the methylation activity of the enzyme complex on a short peptide substrate derived from the N-terminus of H4 histone. Methylation experiment was performed with recombinant PRMT5-MEP50 protein complex. The assessment of inhibitory effect of small molecules was measured by the effectiveness of the compounds to inhibit this reaction (EC50).
# In this assay, the potency (EC50) of each compound was determined from a twenty-point (1:2 serial dilution; top compound concentration of 100000 nM) titration curve using the following outlined procedure. To each well of a white ProxiPlus 384 well-plate, 100 nL of compound (1% DMSO in final assay volume of 10 μL) was dispensed, followed by the addition of 8 μL of 1× assay buffer (50 mM Bicine pH 8.0, 1 mM DTT, 0.004% Tween20, 0.01% BSA) containing 1.25 nM of Full-length (FL)-PRMT5-MEP50 enzyme complex (recombinant proteins from baculovirus-transfected Sf21 cells: FL-PRMT5; MW=[…] and FL-MEP50; MW=38614) and 1 μL of 150 μM S-(5′-Adenosyl)-L-Methionine Chloride (SAM). A plate was sealed and placed in a 37° C. humidified chamber for a 60 minutes pre-incubation with compound. Subsequently, each reaction was initiated by the addition of 1 μL 1× assay buffer containing 750 nM biotinylated H4R3 (MeI) peptide. The final reaction in each well of 10 μL consists of 1.0 nM PRMT5-MEP50, 75 nM biotinylated-peptide, and 15 μM SAM. Methylation reactions were allowed to proceed for 150 minutes in a sealed plate at 37° C. Reactions were immediately quenched by the addition of 1 μL of 5% formic acid. A plate was then frozen and shipped to SAMDI™ Tech Inc. to determine the percent conversion from H4R3 (MeI) to H4R3 (Me2). Dose-response curves were generated by plotting percent effect (% product conversion; Y-axis) vs. Log 10 compound concentrations (X-axis). EC50 values were determined by non-linear regression according to models for either sigmoidal (4 parameters) or biphasic (7 parameters) dose-response curves.
# PRMT5 = target: T2, PRMT5 (Homo sapiens, UniProt O14744); assay: PRMT5 Cell Target Engagement (TE) Assay; type: cell-based; conditions: MCF-7 cells, treated for 3 days, symmetric dimethylation of arginine (SDMA) by high content imaging
# T2 construct: seeded with 4000 MCF-7 cells in 30 μl media; endogenous in cells; host or cells: MCF-7 cells
# Method in brief: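 Readout is single-cell nuclear symmetric-dimethylarginine immunofluorescence (Alexa488), normalized to DMSO-treated cells. Compounds were applied to MCF-7 cells for 3 days at 37 °C, top concentration 10000 nM in 1:3 steps over ten points; curves fitted with 4-parameter robust fit.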
# [2] = only one EC50 shown: 4 parameters single site sigmoidal model, 60 min pre-incubation with SAM, read-out: Enzyme Methylation Assay Version A (EC50)
# [3] = first of two EC50s: 7 parameters biphasic model, read-out: Enzyme Methylation Assay Version A (EC50_1)
# [4] = second of two EC50s: 7 parameters biphasic model, read-out: Enzyme Methylation Assay Version A (EC50_2)
# T2 sequence (O14744 whole entry): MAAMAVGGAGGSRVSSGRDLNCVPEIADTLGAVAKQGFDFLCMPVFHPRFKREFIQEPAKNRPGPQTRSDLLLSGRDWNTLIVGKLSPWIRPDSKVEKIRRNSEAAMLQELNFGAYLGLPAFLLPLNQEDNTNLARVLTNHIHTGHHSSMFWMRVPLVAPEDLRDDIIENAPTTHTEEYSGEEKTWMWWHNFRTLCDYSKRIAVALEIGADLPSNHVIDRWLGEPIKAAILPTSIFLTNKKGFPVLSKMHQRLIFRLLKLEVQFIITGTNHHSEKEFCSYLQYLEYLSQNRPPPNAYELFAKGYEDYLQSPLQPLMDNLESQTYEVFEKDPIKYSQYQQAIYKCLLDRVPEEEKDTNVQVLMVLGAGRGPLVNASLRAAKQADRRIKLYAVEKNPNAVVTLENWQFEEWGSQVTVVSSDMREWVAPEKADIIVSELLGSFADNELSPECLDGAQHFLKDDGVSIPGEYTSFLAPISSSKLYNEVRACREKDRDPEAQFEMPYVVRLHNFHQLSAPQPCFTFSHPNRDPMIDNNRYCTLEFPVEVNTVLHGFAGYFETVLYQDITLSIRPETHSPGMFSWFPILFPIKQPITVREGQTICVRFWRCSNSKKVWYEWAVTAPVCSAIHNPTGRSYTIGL
# T2 sequence (Q9BQA1 whole entry partner): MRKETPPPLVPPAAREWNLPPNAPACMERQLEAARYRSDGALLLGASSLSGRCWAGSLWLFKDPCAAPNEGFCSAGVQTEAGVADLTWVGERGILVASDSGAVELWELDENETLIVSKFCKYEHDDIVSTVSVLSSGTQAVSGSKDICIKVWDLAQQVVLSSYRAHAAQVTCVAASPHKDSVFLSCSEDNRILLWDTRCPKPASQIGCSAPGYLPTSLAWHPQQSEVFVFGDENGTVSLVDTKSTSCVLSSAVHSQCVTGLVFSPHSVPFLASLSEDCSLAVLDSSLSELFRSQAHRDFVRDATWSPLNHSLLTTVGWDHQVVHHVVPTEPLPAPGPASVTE
# T1 sequence (O14744 whole entry): as the sequence (O14744 whole entry) above
# T1 sequence (Q9BQA1 whole entry partner): as the sequence (Q9BQA1 whole entry partner) above
smiles,measurement,setting,value
"O=C(c1ccc2c(c1)NCCN(C1CCOC1)C2=O)N1CC[C@H](N2CCc3ccccc3C2)[C@@H](O)C1 (stereo partly drawn) [Example 65, 8-((3S,4S)-4-(3,4-dihydroisoquinolin-2(1H)-yl)-3-hydroxypiperidine-1-carbonyl)-4-(tetrahydrofuran-3-yl)-1,2,3,4-tetrahydro-5H-benzo[e][1,4]diazepin-5-one]",pEC50,[1]; [2],8.46
same,pEC50,PRMT5,8.02
"Cc1c(Br)cnc2nc(C(=O)N3CC[C@H](N4CCc5ccccc5C4)[C@@H](O)C3)cn12 [Example 66, (6-bromo-5-methylimidazo[1,2-a]pyrimidin-2-yl)((3S,4S)-4-(3,4-dihydroisoquinolin-2(1H)-yl)-3-hydroxypiperidin-1-yl)methanone]",pEC50,[1]; [3],8.28
same,pEC50,[1]; [4],6.06
same,pEC50,PRMT5,5.74
"Cc1nc2nc(C(=O)N3CC[C@H](N4CCc5ccccc5C4)[C@@H](O)C3)cn2cc1Br [Example 67, (6-bromo-7-methylimidazo[1,2-a]pyrimidin-2-yl)((3S,4S)-4-(3,4-dihydroisoquinolin-2(1H)-yl)-3-hydroxypiperidin-1-yl)methanone]",pEC50,[1]; [3],9.22
same,pEC50,[1]; [4],7.28
same,pEC50,PRMT5,7.31
"COc1nc2nc(C(=O)N3CC[C@H](N4CCc5ccccc5C4)[C@@H](O)C3)cn2cc1Br [Example 69, (6-bromo-7-methoxyimidazo[1,2-a]pyrimidin-2-yl)((3S,4S)-4-(3,4-dihydroisoquinolin-2(1H)-yl)-3-hydroxypiperidin-1-yl)methanone]",pEC50,[1]; [3],8.92
same,pEC50,[1]; [4],6.13
same,pEC50,PRMT5,7.26
"O=C(c1cn2cc(Br)c(O)nc2n1)N1CC[C@H](N2CCc3ccccc3C2)[C@@H](O)C1 [Example 70, (6-bromo-7-hydroxyimidazo[1,2-a]pyrimidin-2-yl)((3S,4S)-4-(3,4-dihydroisoquinolin-2(1H)-yl)-3-hydroxypiperidin-1-yl)methanone]",pEC50,[1]; [3],~7.35
same,pEC50,[1]; [4],4.06
same,pEC50,PRMT5,< 5.00
"O=C(c1cn2cc(Br)cnc2n1)N1CC[C@H](N2CCc3ccccc3C2)[C@@H](O)C1 [Example 71, (6-bromoimidazo[1,2-a]pyrimidin-2-yl)[(3S,4S)-4-(3,4-dihydroisoquinolin-2(1H)-yl)-3-hydroxypiperidin-1-yl]methanone]",pEC50,[1]; [2],8.96
same,pEC50,PRMT5,8.00
"Cc1cnc2nc(C(=O)N3CC[C@H](N4CCc5ccccc5C4)[C@@H](O)C3)cn2c1 [Example 72, [(3S,4S)-4-(3,4-dihydroisoquinolin-2(1H)-yl)-3-hydroxypiperidin-1-yl](6-methylimidazo[1,2-a]pyrimidin-2-yl)methanone]",pEC50,[1]; [3],9.05
same,pEC50,[1]; [4],6.61
same,pEC50,PRMT5,7.43
"Cc1nc2ncc(C(=O)N3CC[C@H](N4CCc5ccccc5C4)[C@@H](O)C3)n2cc1Br [Example 75, (6-bromo-7-methylimidazo[1,2-a]pyrimidin-3-yl)[(3S,4S)-4-(3,4-dihydroisoquinolin-2(1H)-yl)-3-hydroxypiperidin-1-yl]methanone]",pEC50,[1]; [3],7.39
same,pEC50,[1]; [4],5.81
same,pEC50,PRMT5,6.19
"Cc1c(Br)cnc2ncc(C(=O)N3CC[C@H](N4CCc5ccccc5C4)[C@@H](O)C3)n12 [Example 76, (6-bromo-5-methylimidazo[1,2-a]pyrimidin-3-yl)[(3S,4S)-4-(3,4-dihydroisoquinolin-2(1H)-yl)-3-hydroxypiperidin-1-yl]methanone]",pEC50,[1]; [3],8.51
same,pEC50,[1]; [4],5.77
same,pEC50,PRMT5,5.65
"CC(C#N)c1cnc2nc(C(=O)N3CC[C@H](N4CCc5ccccc5C4)[C@@H](O)C3)cn2c1 (stereo partly drawn) [Example 77, 2-{2-[(3S,4S)-4-(3,4-dihydroisoquinolin-2(1H)-yl)-3-hydroxypiperidine-1-carbonyl]imidazo[1,2-a]pyrimidin-6-yl}propanenitrile]",pEC50,[1]; [2],8.68
same,pEC50,PRMT5,7.89
"O=C(c1cn2cc(Br)c(C3CC3)nc2n1)N1CC[C@H](N2CCc3ccccc3C2)[C@@H](O)C1 [Example 78, (6-bromo-7-cyclopropylimidazo[1,2-a]pyrimidin-2-yl)[(3S,4S)-4-(3,4-dihydroisoquinolin-2(1H)-yl)-3-hydroxypiperidin-1-yl]methanone]",pEC50,[1]; [2],9.15
same,pEC50,PRMT5,7.68
"CC(C)c1nc2nc(C(=O)N3CC[C@H](N4CCc5ccccc5C4)[C@@H](O)C3)cn2cc1Br [Example 79, [6-bromo-7-(propan-2-yl)imidazo[1,2-a]pyrimidin-2-yl][(3S,4S)-4-(3,4-dihydroisoquinolin-2(1H)-yl)-3-hydroxypiperidin-1-yl]methanone]",pEC50,[1]; [2],9.15
same,pEC50,PRMT5,8.31
"CC1(C)Oc2ccc(C(=O)N3CC[C@H](N4CCc5ccccc5C4)[C@@H](O)C3)cc2NC1=O [Example 101, 6-((3S,4S)-4-(3,4-dihydroisoquinolin-2(1H)-yl)-3-hydroxypiperidine-1-carbonyl)-2,2-dimethyl-2H-benzo[b][1,4]oxazin-3(4H)-one]",pEC50,[1]; [3],9.05
same,pEC50,[1]; [4],5.54
same,pEC50,PRMT5,7.80
"O=C(c1ccc2c(c1)NCCN(CC(F)(F)F)C2=O)N1CC[C@H](N2CCc3ccccc3C2)[C@@H](O)C1 [Example 102, 8-((3S,4S)-4-(3,4-dihydroisoquinolin-2(1H)-yl)-3-hydroxypiperidine-1-carbonyl)-4-(2,2,2-trifluoroethyl)-1,2,3,4-tetrahydro-5H-benzo[e][1,4]diazepin-5-one]",pEC50,[1]; [3],8.82
same,pEC50,[1]; [4],6.04
same,pEC50,PRMT5,8.00
"CC(C)(C)OC(=O)N1C2CCC1CC(Nc1cc(C(=O)N3CC[C@H](N4CCc5ccccc5C4)[C@@H](O)C3)c(F)cn1)C2 (stereo partly drawn) [Example 104, tert-butyl-3-((4-((3S,4S)-4-(3,4-dihydroisoquinolin-2(1H)-yl)-3-hydroxypiperidine-1-carbonyl)-5-fluoropyridin-2-yl)amino)-8-azabicyclo[3.2.1]octane-8-carboxylate]",pEC50,[1]; [2],8.77
same,pEC50,PRMT5,7.38
"CCOc1cnc(NC2CCN(C(C)=O)CC2)cc1C(=O)N1CC[C@H](N2CCc3ccccc3C2)[C@@H](O)C1 [Example 107, 1-(4-((4-((3S,4S)-4-(3,4-dihydroisoquinolin-2(1H)-yl)-3-hydroxypiperidine-1-carbonyl)-5-ethoxypyridin-2-yl)amino)piperidin-1-yl)ethan-1-one]",pEC50,[1]; [2],8.68
same,pEC50,PRMT5,8.10
"O=C(c1cc(NC2CCN(C(=O)C3CC3)CC2)ncc1F)N1CC[C@H](N2CCc3ccccc3C2)[C@@H](O)C1 [Example 108, (2-((1-(cyclopropanecarbonyl)piperidin-4-yl)amino)-5-fluoropyridin-4-yl)((3S,4S)-4-(3,4-dihydroisoquinolin-2(1H)-yl)-3-hydroxypiperidin-1-yl)methanone]",pEC50,[1]; [2],8.89
same,pEC50,PRMT5,8.42
"COC(=O)N1CCC(Nc2cc(C(=O)N3CC[C@H](N4CCc5ccccc5C4)[C@@H](O)C3)c(F)cn2)CC1 [Example 109, methyl 4-((4-((3S,4S)-4-(3,4-dihydroisoquinolin-2(1H)-yl)-3-hydroxypiperidine-1-carbonyl)-5-fluoropyridin-2-yl)amino)piperidine-1-carboxylate]",pEC50,[1]; [2],8.92
same,pEC50,PRMT5,8.46
"CN(C)C(=O)N1CCC(Nc2cc(C(=O)N3CC[C@H](N4CCc5ccccc5C4)[C@@H](O)C3)c(F)cn2)CC1 [Example 110, 4-((4-((3S,4S)-4-(3,4-dihydroisoquinolin-2(1H)-yl)-3-hydroxypiperidine-1-carbonyl)-5-fluoropyridin-2-yl)amino)-N,N-dimethylpiperidine-1-carboxamide]",pEC50,[1]; [2],8.85
same,pEC50,PRMT5,8.09
"CCC(=O)N1CCC(Nc2cc(C(=O)N3CC[C@H](N4CCc5ccccc5C4)[C@@H](O)C3)c(F)cn2)CC1 [Example 111, 1-(4-((4-((3S,4S)-4-(3,4-dihydroisoquinolin-2(1H)-yl)-3-hydroxypiperidine-1-carbonyl)-5-fluoropyridin-2-yl)amino)piperidin-1-yl)propan-1-one]",pEC50,[1]; [2],8.85
same,pEC50,PRMT5,8.21
